Experimental data published in patent publication US20110092517A1, “Use of PPAR Delta Ligands for the Treatment or Prevention of Inflammation or Energy Metabolism/Production Related Diseases” (Cerenis Therapeutics S.A. & Nippon Chemiphar Co., Ltd., priority 2009, published 2011).

Experiments:
human PPARδ [1] = molecular target: T1, human PPARδ (Homo sapiens, UniProt Q03181); assay: Full-length receptor transactivation assay (PPREx3-tk-luc, hRXRα) in CV-1 cells; assay type: cell-based; conditions: full-length hPPARδ + RXRalpha, read-out: Transactivation activity FULL-hPPAR + mRXRalpha (EC50-Um) delta
T1 construct: expressed in transfected cells; host or cells: CV-1
T1 sequence (Q03181 1-441): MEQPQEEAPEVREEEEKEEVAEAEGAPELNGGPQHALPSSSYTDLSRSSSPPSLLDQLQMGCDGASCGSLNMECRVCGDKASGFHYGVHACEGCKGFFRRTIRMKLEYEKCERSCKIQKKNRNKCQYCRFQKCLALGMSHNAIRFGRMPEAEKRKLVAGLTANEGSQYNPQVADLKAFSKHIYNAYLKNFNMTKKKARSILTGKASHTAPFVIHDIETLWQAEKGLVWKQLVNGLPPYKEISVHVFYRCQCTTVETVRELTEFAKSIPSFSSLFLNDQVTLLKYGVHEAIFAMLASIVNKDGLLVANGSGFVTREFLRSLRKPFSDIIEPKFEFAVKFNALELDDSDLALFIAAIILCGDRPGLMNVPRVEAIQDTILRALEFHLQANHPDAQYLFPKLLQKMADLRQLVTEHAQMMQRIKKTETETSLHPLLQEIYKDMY
T1 sequence (P19793 1-462 partner): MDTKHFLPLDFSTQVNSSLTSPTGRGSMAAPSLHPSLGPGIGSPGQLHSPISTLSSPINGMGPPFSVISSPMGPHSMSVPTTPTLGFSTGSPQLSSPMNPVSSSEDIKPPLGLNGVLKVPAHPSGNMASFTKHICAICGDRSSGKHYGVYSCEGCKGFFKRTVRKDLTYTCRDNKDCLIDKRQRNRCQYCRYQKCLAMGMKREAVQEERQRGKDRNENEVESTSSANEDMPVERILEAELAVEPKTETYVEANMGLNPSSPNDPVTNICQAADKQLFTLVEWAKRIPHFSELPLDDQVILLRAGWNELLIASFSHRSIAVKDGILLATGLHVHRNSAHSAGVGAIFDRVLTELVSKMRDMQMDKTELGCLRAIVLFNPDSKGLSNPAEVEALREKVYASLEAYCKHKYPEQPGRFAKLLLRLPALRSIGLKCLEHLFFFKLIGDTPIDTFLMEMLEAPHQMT
Experimental: (§1) Receptor expression plasmids: Full-length coding sequences for human PPARα, PPARγ and PPARδ were inserted into the mammalian expression vector pcDNA3.1+ or pCMX. The full-length coding sequence for human RXRα was inserted into pcDNA3.1+.
(§2) Reporter plasmid: PPREx3-tk-luc (3) was used as the reporter plasmid. It contains three copies of rat Acyl-CoA oxidase peroxisome proliferator response element (PPRE) sequence (AGGACA-A-AGGTCA).
(§3) The luciferase and βGAL activity were measured according to the methods of Umesono, K. et al. (4) with slight modifications. A substrate reagent kit (Picagene, Toyo Ink) was used for the luciferase assay. Assays were performed in duplicate and triplicate for GAL4-chimeras and full-length receptors, respectively. Experiments were repeated at least four times.

human PPARγ = molecular target: T2, human PPARγ (Homo sapiens, UniProt P37231); assay: as above; assay type: cell-based; conditions: full-length hPPARγ + RXRalpha, read-out: Transactivation activity FULL-hPPAR + mRXRalpha (EC50-Um) gamma
T2 construct: expressed in transfected cells; host or cells: CV-1
T2 sequence (P37231 1-505): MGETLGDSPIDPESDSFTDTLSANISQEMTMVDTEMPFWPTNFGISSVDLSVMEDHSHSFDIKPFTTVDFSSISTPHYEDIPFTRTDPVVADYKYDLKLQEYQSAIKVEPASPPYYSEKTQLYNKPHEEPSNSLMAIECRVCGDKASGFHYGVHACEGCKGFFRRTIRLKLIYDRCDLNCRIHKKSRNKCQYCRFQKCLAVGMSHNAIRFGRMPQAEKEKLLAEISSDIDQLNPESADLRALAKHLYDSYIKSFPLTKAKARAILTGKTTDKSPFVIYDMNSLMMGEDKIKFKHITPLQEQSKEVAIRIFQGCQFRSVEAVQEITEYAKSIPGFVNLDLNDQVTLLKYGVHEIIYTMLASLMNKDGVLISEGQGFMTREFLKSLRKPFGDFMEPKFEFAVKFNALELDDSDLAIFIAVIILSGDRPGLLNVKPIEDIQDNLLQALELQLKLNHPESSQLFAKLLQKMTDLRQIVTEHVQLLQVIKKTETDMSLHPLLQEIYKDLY
T2 sequence (P19793 1-462 partner): T1 sequence (P19793 1-462 partner)
Experimental: as §1, §2, §3

human PPARα [2] = molecular target: T3, human PPARα (Homo sapiens, UniProt Q07869); assay: as above; assay type: cell-based; conditions: full-length hPPARα + RXRalpha, read-out: Transactivation activity FULL-hPPAR + mRXRalpha (EC50-Um) alpha
T3 construct: expressed in transfected cells; host or cells: CV-1
T3 sequence (Q07869 1-468): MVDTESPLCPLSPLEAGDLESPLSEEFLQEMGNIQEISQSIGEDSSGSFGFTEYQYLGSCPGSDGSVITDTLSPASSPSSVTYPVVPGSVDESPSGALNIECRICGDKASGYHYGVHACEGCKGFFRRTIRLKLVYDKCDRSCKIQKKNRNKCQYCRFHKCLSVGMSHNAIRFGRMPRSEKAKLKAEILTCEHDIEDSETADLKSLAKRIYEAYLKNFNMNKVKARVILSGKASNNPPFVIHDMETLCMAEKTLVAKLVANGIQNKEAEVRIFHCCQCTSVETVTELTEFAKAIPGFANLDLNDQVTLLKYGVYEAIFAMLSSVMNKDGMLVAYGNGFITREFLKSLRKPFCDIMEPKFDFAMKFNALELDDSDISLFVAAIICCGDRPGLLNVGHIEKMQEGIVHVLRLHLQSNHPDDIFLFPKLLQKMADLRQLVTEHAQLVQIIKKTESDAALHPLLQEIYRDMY
T3 sequence (P19793 1-462 partner): T1 sequence (P19793 1-462 partner)
Experimental: as §1, §2, §3

human PPARγ1 = molecular target: T4, human PPARγ1 (Homo sapiens, UniProt P37231); assay: GAL4-PPAR chimera receptor transactivation assay in CV-1 cells (Example 3); assay type: cell-based; conditions: GAL4 DBD-hPPARγ LBD chimera, read-out: Transactivation activity GAL 4 DBD-hPPAR LBD (EC50-Um) gamma
T4 construct: PPARγ1 (amino acids 176-477); expressed in transfected cells; host or cells: CV-1
T4 sequence (P37231 176-477 isoform P37231-2): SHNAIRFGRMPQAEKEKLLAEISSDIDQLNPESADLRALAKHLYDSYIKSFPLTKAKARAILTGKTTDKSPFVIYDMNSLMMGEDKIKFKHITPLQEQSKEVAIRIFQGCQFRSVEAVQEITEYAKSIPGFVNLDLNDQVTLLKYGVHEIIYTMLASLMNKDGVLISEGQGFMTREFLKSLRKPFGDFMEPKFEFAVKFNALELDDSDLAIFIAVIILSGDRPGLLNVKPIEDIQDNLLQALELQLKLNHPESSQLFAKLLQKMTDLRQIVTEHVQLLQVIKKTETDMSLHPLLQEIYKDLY
Experimental: (§4) MH100×4-tk-luc (2) was used as the reporter plasmid.
as §3

human PPARδ [3] = molecular target: T5, human PPARδ (Homo sapiens, UniProt Q03181); assay: as above; assay type: cell-based; conditions: GAL4 DBD-hPPARδ LBD chimera, read-out: Transactivation activity GAL 4 DBD-hPPAR LBD (EC50-Um) delta
T5 construct: PPARδ (amino acids 139-441); expressed in transfected cells; host or cells: CV-1
T5 sequence (Q03181 139-441): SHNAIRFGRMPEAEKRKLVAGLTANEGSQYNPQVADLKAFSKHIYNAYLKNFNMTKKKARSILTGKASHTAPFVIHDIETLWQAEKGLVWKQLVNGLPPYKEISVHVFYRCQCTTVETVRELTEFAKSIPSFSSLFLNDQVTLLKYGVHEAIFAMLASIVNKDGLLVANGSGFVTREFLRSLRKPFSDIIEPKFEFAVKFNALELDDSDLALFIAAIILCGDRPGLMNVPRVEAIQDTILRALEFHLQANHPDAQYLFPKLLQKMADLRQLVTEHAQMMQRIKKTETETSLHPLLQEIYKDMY
Experimental: as §4, §3

human PPARα [4] = molecular target: T6, human PPARα (Homo sapiens, UniProt Q07869); assay: as above; assay type: cell-based; conditions: GAL4 DBD-hPPARα LBD chimera, read-out: Transactivation activity GAL 4 DBD-hPPAR LBD (EC50-Um) alpha
T6 construct: human PPARα (amino acids 167-468); expressed in transfected cells; host or cells: CV-1
T6 sequence (Q07869 167-468): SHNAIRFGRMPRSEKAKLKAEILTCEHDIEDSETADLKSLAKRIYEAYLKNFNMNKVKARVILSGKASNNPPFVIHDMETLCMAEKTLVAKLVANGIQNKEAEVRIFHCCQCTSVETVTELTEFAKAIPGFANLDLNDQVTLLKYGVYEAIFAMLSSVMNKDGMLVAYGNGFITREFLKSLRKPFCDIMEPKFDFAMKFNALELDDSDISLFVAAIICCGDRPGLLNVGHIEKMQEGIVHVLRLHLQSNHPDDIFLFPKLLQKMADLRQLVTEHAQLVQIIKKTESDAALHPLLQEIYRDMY
Experimental: as §4, §3

[5] = toxicological dosages for 10 days, cited from earlier work; for Peroxisome proliferation in muscle and liver: WT mice

| SMILES | EC50 (human PPARδ [1]) | EC50 (human PPARγ) | EC50 (human PPARα [2]) | EC50 (human PPARγ1) | EC50 (human PPARδ [3]) | EC50 (human PPARα [4]) | Peroxisome proliferation in muscle and liver [5] | Incidence and severity of skeletal myopathy ([5]; WT vs PPAR-α KO mice) |
| --- | --- | --- | --- | --- | --- | --- | --- | --- |
| Cc1cc(C(O)CCc2sc(-c3ccc(C(F)(F)F)cc3)nc2C(C)C)ccc1OCC(=O)O (stereo not drawn) | > 0.3 µM | > 8 µM | > 8 µM | > 10 µM | > 1 µM | > 10 µM |  |  |
| Cc1cccc(Nc2cc(Cl)nc(SCC(=O)O)n2)c1C [WY-14,643] |  |  |  |  |  |  | significant peroxisome proliferation |  |
| Cc1cc(C(=O)CCc2sc(-c3ccc(C(F)(F)F)cc3)nc2C(C)C)ccc1SCC(=O)O |  |  |  | 6.7 µM | 0.018 µM | 3.3 µM |  |  |
| Cc1cc(C(=O)CCc2nc(-c3ccc(Cl)cc3O)oc2C(C)C)ccc1OCC(=O)O | 0.058 µM | 9.8 µM | 3.8 µM | > 10 µM | 0.032 µM | > 10 µM |  |  |
| Cc1cc2c(CCc3nc(-c4ccc(Cl)cc4Cl)oc3C(C)C)noc2cc1OCC(=O)O | 0.007 µM | > 10 µM | 7.8 µM | > 10 µM | 0.025 µM | > 10 µM |  |  |
| Cc1cc(SCc2sc(-c3ccc(C(F)(F)F)c(F)c3)nc2C)ccc1OCC(=O)O [GW0742] |  |  |  |  |  |  | significant peroxisome proliferation | greater in WT mice |
| Cc1cc(C(=O)/C=C/c2sc(-c3ccc(C(F)(F)F)cc3)nc2C(C)C)ccc1OCC(=O)O | 0.019 µM | > 10 µM | > 10 µM | > 10 µM | 0.045 µM | > 10 µM |  |  |
| Cc1cc(C(=O)CCc2sc(-c3ccc(C(F)(F)F)cc3)nc2C(C)C)ccc1OCC(=O)O [drawing 63] | 0.0022 µM | 5.8 µM | 3.2 µM | > 8 µM | 0.018 µM | > 10 µM |  |  |
| Cc1cc([C@H](O)CCc2sc(-c3ccc(C(F)(F)F)cc3)nc2C(C)C)ccc1OCC(=O)O |  |  |  | > 10 µM | > 0.7 µM | > 10 µM |  |  |
